What all share (assay type): in vivo, mouse
For assay [1], the system named is 3MR mice exposed to bleomycin. Description: Bleomycin induced lung injury model. Here is the method: One animal model study assessed the effect of clearance of senescence cells in the transgenic mouse strain 3MR that has bleomycin induced lung injury. In the bleomycin injury model for idiopathic pulmonary fibrosis, mice develop lung fibrosis within 7-14 days after bleomycin treatment (see, e.g., Limjunyawong et al., 2014, Physiological Reports 2:e00249; Daniels et al., 2004, J. Clin. Invest. 114:1308-1316). Bleomycin was administered to anesthetized 6-8 week old 3MR mice by intratracheal aspiration (2.5 U/kg of bleomycin in 50 μl PBS) using a microsprayer syringe (Penn-Century, Inc.) as described in Daniels et al. (2004, J. Clin. Invest. 114:1308-1316). Control mice were administered saline. The day following bleomycin treatment, ganciclovir (GCV) (25 mg/kg in PBS) was administered. 3MR mice were treated via intraperitoneal injection with ganciclovir for 5 consecutive days, followed by 5 days of rest, followed by a second treatment cycle of 5 consecutive days. Untreated mice received an equal volume of vehicle. At 7, 14, and 21 days post-bleomycin treatment, lung function was assessed by monitoring oxygen saturation using the MouseSTAT PhysioSuite pulse oximeter (Kent Scientific). Animals were anesthetized with isoflurane (1.5%) and a toe clip was applied. Mice were monitored for 30 seconds and the average peripheral capillary oxygen saturation (SpO2) measurement over this duration was calculated. […] At 21 days post-bleomycin treatment, airway hyper-reactivity (AHR) of mice was examined. AHR of mice was measured by methacholine challenge while other parameters of lung function (airway mechanics, lung volume and lung compliance) were determined using a SCIREQ flexiVent ventilator. While under ketamine/xylazine anesthesia and subjected to cannulation of the trachea via a tracheostomy (19Fr blunt Luer cannula), airway resistance (elastance) and compliance of mice were assessed at baseline and in response to increasing concentrations of methacholine (0 to 50 mg/ml in PBS) delivered via nebulization (AeroNeb) as described in Aravamudan et al. (Am. J. Physiol. Lung Cell. Mol. Physiol. (2012) 303:L669-L681). Animals were maintained at 37° C., and while under muscle paralysis (pancuronium); airway function was measured by using the FlexiVent™ ventilator and lung mechanics system (SCIREQ, Montreal, Quebec, Canada), which was housed on Stabile 8. […] As shown in FIGS. 60B-C, bleomycin administration reduced static compliance and (dynamic) compliance in vehicle treated mice. […] Mice were euthanized by i.p injection of pentobarbital. Bronchoalveolar lavage (BAL) fluids and lungs is obtained and analyzed. Hydroxyproline content of lungs is measured as described in Christensen et al. (1999, Am. J. Pathol. 155:1773-1779), and quantitative histopathology is performed. RNA is extracted from lung tissue to measure senescence cell markers by qRT-PCR in treated and control mice.

The subject of assay [2] is LDLR-/-/3MR double transgenic mice. Put plainly: Mature atherosclerotic plaques in LDLR-/-/3MR mice, 100 day treatment period. The conditions noted are these: vs LDLR-/- control. The procedure:
The impact of clearance of senescent cells on the stability and size of mature atherosclerotic plaques was studied in LDLR^−/−/3MR double transgenic mice. From 10 weeks of age, LDLR^−/−/3MR double transgenic mice (10 weeks) and LDLR^−/− single transgenic mice (control) were fed a high fat diet (Harlan Teklad TD.88137) having 42% calories from fat beginning at Week 0 until Week 12.5, when the mice were switched to normal chow diet. Both groups of mice were treated with ganciclovir from week 12.5 over the next 100 days, with each treatment cycle comprising 5 days of ganciclovir (25 mg/kg intraperitoneally daily) and 14 days off. At the end of the 100 day treatment period, the mice were sacrificed, plasma and tissues were collected, and atherosclerosis was quantitated. Descending aortas were dissected and stained with Sudan IV to visualize the plaque lipids. […] Plaques from ganciclovir-treated LDLR^−/− control and LDLR^−/−/3MR mice (see dashed circled plaques in FIGS. 55A-B, respectively) were harvested and cut into cross-sections and stained with […] the general architecture of the atherosclerotic plaques. “#” indicates fat located on the outside of the aorta (see FIG. 55A). The plaques marked with an “*” and “**” in FIGS. 55A and B, respectively, are shown as stained cross-sections in FIGS. […], respectively. […] The plaque from the control mice has identifiable “lipid pockets” accumulating within. […] Disruption or tear in the cap of a lipid-rich plaque is a trigger for coronary events through exposure of plaque thrombogenic components to platelets and clotting components of the blood. Plaques that grow more rapidly as a result of rapid lipid deposition and have thin fibrin caps are prone to rupture. Slowly growing plaques with mature fibrin caps tend to stabilize and are not prone to rupture. Taken together, these experiments indicate that removal of senescent cells may affect atherosclerotic plaque architecture and have a stabilizing effect.

Assay [3] relates to LDLR-/-/3MR double transgenic mice fed a HFD. Description: Atherosclerosis model, LDLR-/-/3MR double transgenic mice fed a HFD. The conditions noted are these: vs LDLR-/- HFD controls. The procedure: The study illustrated in FIG. 43B assessed the extent to which […] based clearance of senescent cells from LDLR^−/−/3MR double transgenic mice improves pre-existing atherogenic disease. LDLR^−/−/3MR double transgenic mice (10 weeks) and LDLR^−/− single transgenic mice (10 weeks) are fed a high fat diet beginning at Week 0 until Week 12. Gancyclovir is administered to both groups of mice (25 mg/kg intraperitoneally) from weeks 12-13 and weeks 14-15. At week 16, the level of plaque and the number of senescent cells in the plaques are determined.

Setting [4] is: bleomycin exposed mouse, not statistically significant, group size too small.
[5] abbreviates: 25 mg/kg i.p., 21 days post-bleomycin.

Take `COc1ccc(C2=N[C@@H](c3ccc(Cl)cc3)[C@@H](c3ccc(Cl)cc3)N2C(=O)N2CCNC(=O)C2)c(OC(C)C)c1` [Nutlin-3a]: in assay [1] (setting [4]), the Lung compliance result is listed as “increased lung compliance” and the Lung elastance entry was “reduced lung elastance”.
As for `Nc1nc(O)c2ncn(COC(CO)CO)c2n1` [ganciclovir], the “Atherosclerotic plaques in descending aorta (Sudan IV staining)” value in assay [2] (25 mg/kg i.p. 5 days on, 14 days off, 100 days) is “fewer atherosclerotic plaques with less intense staining”. In assay [2] (100 day treatment), the “% of the aorta covered in plaques (area of Sudan IV staining)” value is “significantly lower”; the “Plaque morphology (cross-sections)” value is “presence of a thick fibrin cap and the absence of lipid pockets”. In addition, in assay [1] (25 mg/kg i.p., two cycles of 5 days, 7, 14, 21 days post-bleomycin), the “Peripheral capillary oxygen saturation (SpO2)” value is recorded as “higher SpO2 levels”. Besides, in assay [1] (setting [5]), the Lung elastance entry is “reduced lung elastance”; the “Static compliance and (dynamic) compliance” value was “improved compliance values significantly”. Moreover, the “% of the aorta covered with plaque” value in assay [3] (25 mg/kg i.p. weeks 12-13 and 14-15) is given as “reduces the % of the aorta covered with plaque”. For the same compound, the Plaque cross-sectional area entry in assay [3] (25 mg/kg i.p.) was “reduced the plaque cross-sectional area”.
